This assay deals with T1, Ba/F3-FL-TYK2-P760L cells (Homo sapiens, UniProt P29597, P760L, cells depend on it).
T1 construct: BaF3-FL-T2P760L (nM)
As to the kind of experiment: Anti-proliferative assay, Ba/F3-FL-TYK2-P760L cells (Cell-Titer Glo). Format: cell-based. The note with it: 72 h, read-out: BaF3-FL-T2P760L IC50. How it is done: Anti-Proliferative Assay Dimerization domain of Tel protein fused with JAK kinase domain was permanently transduced into Ba/F3 cells, whose proliferation is dependent on JAK activity in the absence of IL-3 induction. These engineered Ba/F3 cells (Ba/F3-FL-TYK2-[…], Ba/F3-TEL-TYK2 and Ba/F3-TEL-JAK2) were used to monitor JAK inhibitory activities of the compounds in the cellular. […] Cells were seeded at 2000/well of white flat bottom 96-well plates. The well containing medium only was used as background control. After 24 h growth, cells were treated with compounds. The test compounds were dissolved in DMSO to a stock concentration of 20 mM. 3-fold serially diluted compounds for 9 concentrations with top concentration of 20 μM was added into the each well. […] The cells continued to grow at 37° C. in 5% CO2 for 72 h after compound treatment. The viability was measured by cellular ATP determination using the Cell-Titer Glo luciferase reagent (Promega). The Luminescence value was recorded by a multi-label reader Envision (PerkinElmer).

T1 sequence (P29597 whole entry P760L): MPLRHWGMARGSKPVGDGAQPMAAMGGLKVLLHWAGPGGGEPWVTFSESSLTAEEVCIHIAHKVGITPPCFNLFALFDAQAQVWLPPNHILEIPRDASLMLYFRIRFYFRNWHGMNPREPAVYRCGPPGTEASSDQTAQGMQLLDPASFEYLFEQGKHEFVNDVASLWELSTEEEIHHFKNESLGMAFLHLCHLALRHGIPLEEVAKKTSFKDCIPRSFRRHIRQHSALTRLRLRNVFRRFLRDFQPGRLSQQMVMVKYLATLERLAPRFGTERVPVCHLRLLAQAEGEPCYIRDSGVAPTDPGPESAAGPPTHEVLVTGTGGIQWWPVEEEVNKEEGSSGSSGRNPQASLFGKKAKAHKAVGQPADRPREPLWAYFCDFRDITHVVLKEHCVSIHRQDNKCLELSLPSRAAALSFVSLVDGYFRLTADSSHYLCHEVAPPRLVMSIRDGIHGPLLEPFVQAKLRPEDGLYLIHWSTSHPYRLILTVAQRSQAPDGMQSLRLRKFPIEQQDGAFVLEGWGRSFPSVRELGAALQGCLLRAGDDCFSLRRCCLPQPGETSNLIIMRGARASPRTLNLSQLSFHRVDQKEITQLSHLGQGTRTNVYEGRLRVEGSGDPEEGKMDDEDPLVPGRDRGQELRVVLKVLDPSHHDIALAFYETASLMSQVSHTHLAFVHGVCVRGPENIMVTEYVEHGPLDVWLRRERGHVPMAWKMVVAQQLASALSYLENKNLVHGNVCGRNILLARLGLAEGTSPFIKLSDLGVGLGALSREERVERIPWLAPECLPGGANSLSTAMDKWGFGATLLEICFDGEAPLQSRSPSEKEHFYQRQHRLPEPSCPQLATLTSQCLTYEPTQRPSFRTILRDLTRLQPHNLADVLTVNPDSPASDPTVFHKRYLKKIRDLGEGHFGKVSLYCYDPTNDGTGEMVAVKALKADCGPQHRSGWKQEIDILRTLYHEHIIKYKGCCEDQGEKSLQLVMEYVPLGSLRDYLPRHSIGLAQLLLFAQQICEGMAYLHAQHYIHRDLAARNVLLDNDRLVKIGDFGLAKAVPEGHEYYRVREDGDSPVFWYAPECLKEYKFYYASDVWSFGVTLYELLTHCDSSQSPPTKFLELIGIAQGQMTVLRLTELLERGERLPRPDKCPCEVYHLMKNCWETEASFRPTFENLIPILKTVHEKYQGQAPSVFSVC

Regarding `[2H]C([2H])([2H])NC(=O)c1cnc(Nc2cnn(C)c2)nc1Nc1ccc2cnn(CC)c2c1OC([2H])([2H])[2H]` [Example 136, 4-((1-Ethyl-7-(methoxy-d3)-1H-indazol-6-yl)amino)-N-(methyl-d3)-2-((1-methyl-1H-pyrazol-4-yl)amino)pyrimidine-5-carboxamide], the GI50 was 0.326 µM.

For `[2H]C([2H])([2H])NC(=O)c1cnc(NC(=O)C2CC2)cc1Nc1ccc2cnn(C(C)C)c2c1OC([2H])([2H])[2H]` [Example 133, 6-(Cyclopropanecarboxamido)-4-((1-isopropyl-7-(methoxy-d3)-1H-indazol-6-yl)amino)-N-(methyl-d3)nicotinamide], the GI50 amounted to 0.394 µM.

For `[2H]C([2H])([2H])NC(=O)c1cnc(NC(=O)C2CC2)cc1Nc1cn(C)c2ccn(C3CC3)c(=O)c12` [Example 108, 6-(Cyclopropanecarboxamido)-4-((5-cyclopropyl-1-methyl-4-oxo-4,5-dihydro-1H-pyrrolo[3,2-c]pyridin-3-yl)amino)-N-(methyl-d3)nicotinamide], the GI50 turned out to be 0.523 µM.

In the case of `[2H]C([2H])([2H])NC(=O)c1cnc(NC(=O)C2CC2)cc1Nc1cn(C)c2ccn(CC(=O)OCC)c(=O)c12` [Example 117, Ethyl 2-(3-((2-(cyclopropanecarboxamido)-5-((methyl-d3)carbamoyl)pyridin-4-yl)amino)-1-methyl-4-oxo-1,4-dihydro-5H-pyrrolo[3,2-c]pyridin-5-yl)acetate], the GI50 was found to be 0.249 µM.

For the compound `COC(=O)c1cnc(NC(=O)C2CC2)cc1Nc1cnc2ccn(CC(F)(F)F)c(=O)n12` [Example 48, Methyl 6-(cyclopropanecarboxamido)-4-((5-oxo-6-(2,2,2-trifluoroethyl)-5,6-dihydroimidazo[1,2-c]pyrimidin-3-yl)amino)nicotinate], the GI50 was 3.81 µM.

Consider `[2H]C([2H])([2H])NC(=O)c1cnc(NC(=O)C2CC2)cc1Nc1cnn2c1C(=O)N(CC(F)(F)F)CC2` [Example 46, 6-(Cyclopropanecarboxamido)-N-(methyl-d3)-4-((4-oxo-5-(2,2,2-trifluoroethyl)-4,5,6,7-tetrahydropyrazolo[1,5-a]pyrazin-3-yl)amino) nicotinamide], for which the GI50 came to 0.372 µM.

Consider `[2H]C([2H])([2H])NC(=O)c1cnc(NC(=O)[C@H]2C[C@H](C#N)C2)cc1Nc1ccc2cnn(CC)c2c1OC` [Example 128B, 6-((Trans)-3-cyanocyclobutane-1-carboxamido)-4-((1-ethyl-7-methoxy-1H-indazol-6-yl)amino)-N-(methyl-d3)nicotinamide], for which the GI50 turned out to be 1.71 µM.

As to `[2H]C([2H])([2H])NC(=O)c1cnc(NC(=O)C2CC2)cc1Nc1cn(C)c2ccn([C@H]3CCOC3)c(=O)c12` [Example 115, 6-(Cyclopropanecarbonylamino)-4-[[1-methyl-4-oxo-5-[(3S)-tetrahydrofuran-3-yl]pyrrolo[3,2-c]pyridin-3-yl]amino]-N-(methyl-d3)pyridine-3-carboxamide], the GI50 stood at 1.1 µM.

`[2H]C([2H])([2H])NC(=O)c1cnc(Nc2ccc(F)cn2)cc1Nc1cn(C)c2c(Cl)cn(CC)c(=O)c12` [Example 160, 4-((7-Chloro-5-ethyl-1-methyl-4-oxo-4,5-dihydro-1H-pyrrolo[3,2-c]pyridin-3-yl)amino)-6-((5-fluoropyridin-2-yl)amino)-N-(methyl-d3)nicotinamide]: the GI50 was 0.0297 µM.

Consider `[2H]C([2H])([2H])NC(=O)c1cnc(Nc2cnn(C3CC3)c2)nc1Nc1cccc(-c2ncn(C)n2)c1OC` [Example 2, 2-[(1-Cyclopropylpyrazol-4-yl)amino]-4-[2-methoxy-3-(1-methyl-1,2,4-triazol-3-yl)anilino]-N-(trideuteromethyl)pyrimidine-5-carboxamide], for which the GI50 came to 0.199 µM.

For the compound `[2H]C([2H])([2H])NC(=O)c1cnc(NC(=O)C2CC2)cc1Nc1csc2c(Cl)cn(CC(F)(F)F)c(=O)c12` [Example 176, 4-((7-Chloro-4-oxo-5-(2,2,2-trifluoroethyl)-4,5-dihydrothieno[3,2-c]pyridin-3-yl)amino)-6-(cyclopropanecarboxamido)-N-(methyl-d3)nicotinamide], the GI50 came to 0.183 µM.

For the compound `[2H]C([2H])([2H])NC(=O)c1cnc2nc1Nc1cc(cc(-c3ncn(C)n3)c1OC)COCc1cc(F)cc(n1)N2` [Example 81, 19-Fluoro-10-methoxy-N-(methyl-d3)-11-(1-methyl-1H-1,2,4-triazol-3-yl)-15-oxa-2,4,8,21,23-pentaazatetracyclo[15.3.1.1^{3,7}.1^{9,13}]tricosa-1(21),3,5,7(23),9(22),10,12,17,19-nonaene-6-carboxamide], the GI50 was found to be 0.33 µM.

`[2H]C([2H])([2H])NC(=O)c1nnc2cc1Nc1cc(cc(-c3ccc(F)cc3)c1OC)COCc1nc(ccc1F)N2` [Example 73, 18-Fluoro-11-(4-fluorophenyl)-10-methoxy-N-(methyl-d3)-15-oxa-2,4,5,8,21-pentaazatetracyclo[15.3.1.1^{3,7}.1^{9,13}]tricosa-1(20),3,5,7(23),9(22),10,12,17(21),18-nonaene-6-carboxamide]: the GI50 amounted to 7.98 µM.

`[2H]C([2H])([2H])NC(=O)c1cnc(Nc2ccc(F)cn2)cc1Nc1cn(C)c2c(Cl)cn(C)c(=O)c12` [Example 159, 4-((7-Chloro-1,5-dimethyl-4-oxo-4,5-dihydro-1H-pyrrolo[3,2-c]pyridin-3-yl)amino)-6-((5-fluoropyridin-2-yl)amino)-N-(methyl-d3)nicotinamide]: the GI50 stood at 0.0283 µM.

In the case of `[2H]C([2H])([2H])NC(=O)c1nnc2cc1Nc1cc(cc(-c3nnc(C)o3)c1OC)COCc1nc(ccc1F)N2` [Example 90, 18-Fluoro-10-methoxy-N-(methyl-d3)-11-(5-methyl-1,3,4-oxadiazol-2-yl)-15-oxa-2,4,5,8,21-pentaazatetracyclo[15.3.1.1^{3,7}.1^{9,13}]tricosa-1(20),3,5,7(23),9(22),10,12,17(21),18-nonaene-6-carboxamide], the GI50 was 0.126 µM.

On to `[2H]C([2H])([2H])NC(=O)c1cnc(Nc2cccc(C(F)(F)F)n2)nc1Nc1cccc(-c2ncn(C)n2)c1OC` [Example 62, 4-((2-Methoxy-3-(1-methyl-1H-1,2,4-triazol-3-yl)phenyl)amino)-N-(methyl-d3)-2-((6-(trifluoromethyl)pyridin-2-yl)amino)pyrimidine-5-carboxamide], for which the GI50 came out at 1.18 µM.

As for `[2H]C([2H])([2H])NC(=O)c1cnc(NC(=O)[C@@H]2C[C@H]2F)cc1Nc1cn(C)c2ccn(CC)c(=O)c12` [Example 103, 4-[(5-Ethyl-1-methyl-4-oxo-pyrrolo[3,2-c]pyridin-3-yl)amino]-6-[[(1S,2R)-2-fluorocyclopropanecarbonyl]amino]-N-(methyl-d3)pyridine-3-carboxamide], the GI50 is 0.761 µM.

Regarding `[2H]C([2H])([2H])NC(=O)c1cnc(NC(=O)C2CC2)cc1Nc1csc2cnn(CC(C)OC)c(=O)c12` (stereo not drawn) [Example 181, 6-(Cyclopropanecarboxamido)-4-((5-(2-methoxypropyl)-4-oxo-4,5-dihydrothieno[2,3-d]pyridazin-3-yl)amino)-N-(methyl-d3)nicotinamide], the GI50 came out at 1.9 µM.

`[2H]C([2H])([2H])NC(=O)c1cnc(NC(=O)[C@@H]2C[C@@H]2F)cc1Nc1cn(C)c2ccn(CC)c(=O)c12` [Example 102, 4-[(5-Ethyl-1-methyl-4-oxo-pyrrolo[3,2-c]pyridin-3-yl)amino]-6-[[(1S,2S)-2-fluorocyclopropanecarbonyl]amino]-N-(methyl-d3)pyridine-3-carboxamide]: the GI50 worked out at 0.807 µM.

`CNC(=O)c1cnc(Nc2ccc(F)cn2)cc1Nc1cccc(C(F)(F)F)c1OC` [Example 55, 6-((5-Fluoropyridin-2-yl)amino)-4-((2-methoxy-3-(trifluoromethyl)phenyl)amino)-N-methylnicotinamide]: the GI50 came out at 0.627 µM.

Regarding `[2H]C([2H])([2H])NC(=O)c1nnc2cc1Nc1cc(cc(-c3ccn(C4CC4)n3)c1OC)COCc1cc(F)cc(n1)N2` [Example 94, 11-(1-Cyclopropyl-1H-pyrazol-3-yl)-19-fluoro-10-methoxy-N-(methyl-d3)-15-oxa-2,4,5,8,21-pentaazatetracyclo[15.3.1.1^{3,7}.1^{9,13}]tricosa-1(21),3,5,7(23),9(22),10,12,17,19-nonaene-6-carboxamide], the GI50 was determined as 0.293 µM.

Take `[2H]C([2H])([2H])NC(=O)c1cnc(NC(=O)C2CC2)cc1Nc1csc2cnn(C(C)COC)c(=O)c12` (stereo not drawn) [Example 182, 6-(Cyclopropanecarboxamido)-4-((5-(1-methoxypropan-2-yl)-4-oxo-4,5-dihydrothieno[2,3-d]pyridazin-3-yl)amino)-N-(methyl-d3)nicotinamide]: the GI50 was 0.491 µM.

Turning to `[2H]C([2H])([2H])NC(=O)c1cnc(NC(=O)C2(C(F)(F)F)CC2)cc1Nc1ccc2cnn(CC)c2c1OC` [Example 238, 4-((1-Ethyl-7-methoxy-1H-indazol-6-yl)amino)-N-(methyl-d3)-6-(1-(trifluoromethyl)cyclopropane-1-carboxamido)nicotinamide], the GI50 is greater than 5 µM.

For the compound `CNC(=O)c1nnc2cc1Nc1cc(cc(-c3ncn(C)n3)c1OC)CN(C)Cc1cccc(n1)N2` [Example 32, 10-Methoxy-N,15-dimethyl-11-(1-methyl-1,2,4-triazol-3-yl)-2,4,5,8,15,21-hexazatetracyclo[15.3.1.13,7.19,13]tricosa-1(21),3(23),4,6,9,11,13(22),17,19-nonaene-6-carboxamide], the GI50 turned out to be 0.856 µM.

The record behind these values is US20250115597A1, “TYK2 INHIBITORS AND COMPOSITIONS AND METHODS THEREOF” (LYNK PHARMACEUTICALS CO. LTD., priority 2021, published 2025).
